Patent US20250197428A1, “INHIBITORS OF KIF18A AND USES THEREOF” (ACCENT THERAPEUTICS, INC., priority 2022, published 2025)
pIC50: −log10 of the molar value.

Legend:
[1] = Tolerability (body weight) in 28 day OVCAR-3 xenograft study; type: in vivo; details: all concentrations dosed, 28 day treatment
[2] = molecular target: KIF18A (Homo sapiens (Human), UniProt Q8NI77); assay: KIF18A Biochemical Assay (ATPase, ADP-Glo)
[3] = In vivo pharmacokinetic evaluation in mouse; parameters: species or system female balb/c nude mice
[4] = test system: human megakaryocyte (CFU-MK) progenitors from human bone marrow mononuclear cells; assay: Human megakaryocyte progenitor colony formation assay (CFU-MK); type: cell-based; details: 336 h, 14 days culture, adjusted for binding to assay buffer, read-out: Free-fraction adjusted CFU-MK IC50
[5] = test system: OVCAR-3 cells; assay: In vitro anti-proliferative activity assay in cancer cell line OVCAR-3 (CellTiter-Glo, 4- or 7-day); type: cell-based; details: Homo sapiens, OVCAR-3, 96 h, 4-day assay; read-out: OVCAR-3 cellular antiproliferation assay IC50
[6] = Caco-2 permeation assay, bidirectional permeability; type: in vitro ADME; details: human, Caco-2, pH 7.4, 5 μM, Papp(B-A)/Papp(A-B)
Method in brief: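 Bidirectional A→B and B→A transport of 5 μM compound in HBSS (10 mM HEPES, pH 7.4), receiver containing 2% BSA, 2 h at 37 °C on 14-day monolayers. Papp from LC-MS/MS peak areas; efflux ratio Papp(B-A)/Papp(A-B), plus recovery. Lucifer Yellow leakage <1% required for monolayer acceptance.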

KIF18A, sequence (Q8NI77 1-367): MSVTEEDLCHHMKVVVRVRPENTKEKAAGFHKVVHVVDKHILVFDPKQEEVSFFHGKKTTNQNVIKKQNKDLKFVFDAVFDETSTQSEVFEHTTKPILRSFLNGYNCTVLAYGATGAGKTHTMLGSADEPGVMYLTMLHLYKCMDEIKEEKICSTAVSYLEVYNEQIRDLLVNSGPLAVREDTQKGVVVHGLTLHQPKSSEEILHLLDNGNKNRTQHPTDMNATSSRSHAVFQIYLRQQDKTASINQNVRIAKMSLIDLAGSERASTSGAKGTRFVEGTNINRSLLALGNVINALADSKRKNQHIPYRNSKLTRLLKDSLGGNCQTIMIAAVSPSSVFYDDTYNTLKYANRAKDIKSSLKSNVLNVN
KIF18A, sequence (P02550 whole entry partner): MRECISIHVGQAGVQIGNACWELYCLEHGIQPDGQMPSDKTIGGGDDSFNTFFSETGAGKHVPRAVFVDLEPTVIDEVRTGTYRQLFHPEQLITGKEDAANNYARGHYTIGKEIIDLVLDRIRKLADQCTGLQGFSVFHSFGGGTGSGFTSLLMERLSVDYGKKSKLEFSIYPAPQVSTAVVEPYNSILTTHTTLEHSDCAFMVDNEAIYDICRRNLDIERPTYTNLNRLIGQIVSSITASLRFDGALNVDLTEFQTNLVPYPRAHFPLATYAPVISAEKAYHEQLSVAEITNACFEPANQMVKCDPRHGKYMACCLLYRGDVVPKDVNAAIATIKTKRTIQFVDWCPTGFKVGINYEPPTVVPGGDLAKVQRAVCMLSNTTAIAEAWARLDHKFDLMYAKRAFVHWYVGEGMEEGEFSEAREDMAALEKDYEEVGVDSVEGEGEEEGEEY
KIF18A, sequence (P02554 whole entry partner): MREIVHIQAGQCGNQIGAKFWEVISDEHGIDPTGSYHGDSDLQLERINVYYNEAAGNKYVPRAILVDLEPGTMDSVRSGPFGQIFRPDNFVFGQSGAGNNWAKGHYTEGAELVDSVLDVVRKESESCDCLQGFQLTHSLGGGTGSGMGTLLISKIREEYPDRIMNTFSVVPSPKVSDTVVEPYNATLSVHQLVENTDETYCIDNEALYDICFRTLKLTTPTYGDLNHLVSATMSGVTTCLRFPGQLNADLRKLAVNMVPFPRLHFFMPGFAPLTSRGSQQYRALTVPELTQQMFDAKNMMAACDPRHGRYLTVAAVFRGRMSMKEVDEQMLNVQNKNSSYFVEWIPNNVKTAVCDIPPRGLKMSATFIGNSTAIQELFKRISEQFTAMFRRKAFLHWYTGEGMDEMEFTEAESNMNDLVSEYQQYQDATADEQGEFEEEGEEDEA

With `Cc1cc(NC(=O)c2ccc(NS(=O)(=O)CCO)cc2N2CC[C@@]3(C(F)F)C[C@H]3C2)nc(N2CCC(F)(F)CC2)n1` (single isomer, unassigned) [Example 29b] as the compound, how does the “Tolerability based on body weight” value [1] read?
The value was “well tolerated”.

And the pIC50 [2]?
Its pIC50 is over 7.00.

What about the “IV Clearance” value ([3]; 3 mg/kg IV) of the same compound?
The value was 3.3 mL/ming/kg.

What about the Vd ([3]; female, balb/c nude, plasma, 3 mg/kg IV, read-out: IV Vss) of the same compound?
The Vd was 0.97 L/kg.

And the Cmax ([3]; female, balb/c nude, plasma, 10 mg/kg PO)?
The Cmax was 4700 ng/mL.

What about the half-life ([3]; female, balb/c nude, plasma, 10 mg/kg PO, read-out: PO T1/2 (converted)) of the same compound?
The half-life was 3.7 h.

What about the pIC50 [4] of the same compound?
Its pIC50 is 6.96.

And the pIC50 [5]?
The pIC50 was over 7.00.

What about the efflux ratio at 2 h, 5 μM [6] of the same compound?
The efflux ratio at 2 h, 5 μM was at least 10.
